Assay: Human HepG2 cell viability assay in 384 well format
Assay type: toxicity, cell-based
Design: dose 125 nL, time 70.5 hour; concentration not given beside the values
Conditions: HepG2 cells, read-out: Inhibition

Structure (SMILES) | cytotoxicity at 70.5 h [%]
NC(=O)Nc1cccc(F)c1C(=O)NC1CCCC1 | -3.68
CC(C)(C)c1ccc2c(c1)CCN2C(=O)c1[nH]c(=O)[nH]c(=O)c1N | -6.44
CCOCc1ccc(NCc2cnc(N3CCN(C)CC3)nc2)cc1 | -3.75
CCOc1ccc(NCc2cnc(N3CCN(C)CC3)nc2)cn1 | -1.43
Cn1cc(S(=O)(=O)N2CCCC(Cn3cncn3)C2)cn1 (centres undefined) | -2.09
Cc1ccc(F)cc1C(=O)NCc1ccc(C(=O)O)o1 | 7.02
CCOc1ccc(NC(=O)c2cccc(OC)c2OC)cc1 | -1.48
CC(OCC1CC1)C(=O)NCc1cccc(CN2CCN(C)CC2)c1 (centres undefined) | 5.66
O=C(COC1CCCCC1)Nc1ccn(CCc2ccncc2)n1 | -7.83
CCN(Cc1ccc(CN(C)C)cc1)C(=O)c1ccncc1O | -11.2
CC1CCCCN1C(=O)Cn1cnc(C#N)n1 (centres undefined) | -6.77
COc1cc(F)ccc1NC(=O)NCCNC(=O)OC(C)(C)C | -14
O=C(NCCCn1cccn1)C1COCC(=O)N1Cc1ccccc1 (centres undefined) | -0.531
CN(Cc1ccc2c(c1)OCO2)Cc1cscn1 | 10.1
COCc1c(Br)cccc1NC(=O)CC(F)(F)F | -13.2
CN(Cc1cscn1)Cc1cc2c(cc1Br)OCO2 | -4.04
Cc1cc(C)n(-c2cccc(NC(=O)N3CCC[C@@H]3CO)c2)n1 | -16
Cc1ccc(C)c(CC(=O)NC2CCCS(=O)(=O)C2)c1 (centres undefined) | 6.95
Cc1ccc(C2CSCCN2CCS(C)(=O)=O)cc1 (centres undefined) | -12.2
Cc1noc(C)c1C(C)NC(=O)N1CCC(NC(=O)c2ccsc2)CC1 (centres undefined) | -6.79

Structure (SMILES) | cytotoxicity at 70.5 h [%]
C[C@@H]1CN(Cc2ccccc2F)CC(C(N)=O)O1 (some centres undefined) | -14.1
Cc1oc(CNC(=O)Cc2ccc3ccccc3c2)cc1C(=O)O | 5.89
CC(c1nc(C2CC2)no1)N1CCN(CCc2ccncc2)CC1 (centres undefined) | -12.6
CC(C)c1noc(C(C)N2CCN(CCc3ccncc3)CC2)n1 (centres undefined) | -16.3
COC(=O)CCN(CC1CCCO1)C(=O)CCc1ccc(OC)cc1 (centres undefined) | -7.89
CCOc1ccc(CC(=O)N(CCC(=O)OC)CC2CCCO2)cc1 (centres undefined) | -14.3
C[C@@H]1CN(Cc2ccc(-c3ccncc3)cc2F)CC(C(N)=O)O1 (some centres undefined) | -0.906
CC(O)(CNc1ccc(Cl)c(C#N)n1)c1ccccc1 (centres undefined) | 13.8
CCOc1ncccc1CNS(=O)(=O)c1ccc2c(c1)CCC2 | 4.98
CCOc1ncccc1CNS(=O)(=O)c1ccc2c(c1)CCO2 | -2.87
CCOc1ncccc1CNS(=O)(=O)c1ccc2c(c1)CCCC(=O)N2 | -4.49
CCn1ccnc1CN1CCN(C(C)C(=O)NCC(F)(F)F)CC1 (centres undefined) | 10
CN1C(=O)CCc2cc(NS(=O)(=O)Cc3cccc(F)c3)ccc21 | -8.13
CCN1CC(COC(=O)c2ccc(Br)cc2F)CC1=O (centres undefined) | -6.68
CC(Nc1ccc2c(c1)CCC2)c1nc(C2CC2)no1 (centres undefined) | -3.74
CCS(=O)(=O)CCN1CCN(C2CCC(C(C)C)CC2)CC1 (centres undefined) | 11.5
O=C(NCC1(c2ccc(F)cc2)CCCC1)N1CCOC(CO)C1 (centres undefined) | 2.92
CC(C)C1CCC(N2CCN(CCS(C)(=O)=O)CC2)CC1 (centres undefined) | -4.3
CC(C)C1CCC(N2CCN(CCCS(C)(=O)=O)CC2)CC1 (centres undefined) | -3.77
CS(=O)(=O)CCNC(=O)N1CC2(CCCC2)c2ccccc21 | 0.304

Structure (SMILES) | cytotoxicity at 70.5 h [%]
O=C1CC2(CCSC2)C(=O)N1Cc1coc(-c2cccc(F)c2)n1 (centres undefined) | -2.41
O=C1CC2(CCSC2)C(=O)N1Cc1coc(-c2ccccc2)n1 (centres undefined) | 2.52
Cc1ocnc1C(=O)Nc1ccc(-c2nnc(N(C)C)o2)cc1 | -3.15
NC(=O)c1ccc(NC(=O)c2ccncc2Cl)cn1 | -4.51
CCc1cnccc1C(=O)Nc1ccc(C(N)=O)nc1 | -4.18
Cc1cc(Br)ccc1CNC(=O)C1(O)CCSCC1 | 9.16
Cc1csc(N(C)C(=O)C2CC(=O)N(c3ccccc3Cl)C2)n1 (centres undefined) | 4.48
CN(C(=O)C1CC(=O)N(CCc2ccccc2)C1)c1nccs1 (centres undefined) | 16.6
CC(Cn1cccn1)NC(=O)C1=Cc2ccccc2OC1 (centres undefined) | -4.64
COC(=O)C(CNC(=O)Nc1nncs1)Cc1ccc(F)cc1 (centres undefined) | -4.56
COc1ccnc(N2CCc3ccc(OC(F)F)cc3C2)n1 | -2.84
COc1ccc(Oc2ncccc2NC(=O)N2CCOC(C)C2)cc1 (centres undefined) | -5.19
CCc1ccc(O)c(C(=O)N2CCN(CC(=O)N(CC)CC)CC2)c1 | 1.25
CNC(=O)c1sccc1S(=O)(=O)Nc1ccc(C)cc1 | -1.86
N#CCCN(Cc1cccnc1)C(=O)c1ccn(-c2ccccc2)n1 | 1.01
CCC(=O)Nc1ccc(C(C)Nc2nc3c(cnn3C)c(=O)[nH]2)cc1 (centres undefined) | -5.84
O=C(CN(Cc1cccs1)c1ccc(F)cc1)NC1CCOCC1 | -1.98
O=C(c1ccc(Cl)cn1)N1CCC(COCc2ccccc2)C1 (centres undefined) | 15.8
CC(C)(C)C(=O)N1CCC(COCc2ccccc2)C1 (centres undefined) | -3.49
